Source: PubChem BioAssay (NCI)
Values joined by “and” are separate entries in the source; they are usually repeats but may differ in a detail not shown here. Equal values may be shown once.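 Results reflect a 48-hour exposure of cells in 96-well plates to compound at five concentrations. The concentration for full growth arrest is given as TGI.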

How the values were obtained:
Assay in all cases: NCI tumour cell line growth inhibition, 48 h
HCT-15 colon = tested on: HCT-15 colon
EKVX NSCLC = tested on: EKVX NSCLC
UACC-257 melanoma = tested on: UACC-257 melanoma
SK-MEL-5 melanoma = tested on: SK-MEL-5 melanoma
A549 NSCLC = tested on: A549 NSCLC
MCF7 breast = tested on: MCF7 breast
HCC-2998 colon = tested on: HCC-2998 colon
DMS 114 small cell lung = tested on: DMS 114 small cell lung
P388 leukemia = tested on: P388 leukemia
CCRF-CEM leukemia = tested on: CCRF-CEM leukemia
KM12 colon = tested on: KM12 colon
HOP-92 NSCLC = tested on: HOP-92 NSCLC
MALME-3M melanoma = tested on: MALME-3M melanoma
COLO 205 colon = tested on: COLO 205 colon
SF-268 CNS = tested on: SF-268 CNS
SR leukemia = tested on: SR leukemia
SK-MEL-2 melanoma = tested on: SK-MEL-2 melanoma
OVCAR-4 ovarian = tested on: OVCAR-4 ovarian
SNB-78 CNS = tested on: SNB-78 CNS
U251 CNS = tested on: U251 CNS
M14 melanoma = tested on: M14 melanoma
HCT-116 colon = tested on: HCT-116 colon
RPMI-8226 leukemia = tested on: RPMI-8226 leukemia
SF-539 CNS = tested on: SF-539 CNS
DU-145 prostate = tested on: DU-145 prostate
DLD-1 colon = tested on: DLD-1 colon
NCI-H522 lung = tested on: NCI-H522 lung
SK-OV-3 ovarian = tested on: SK-OV-3 ovarian
OVCAR-3 ovarian = tested on: OVCAR-3 ovarian
ACHN renal = tested on: ACHN renal
SW-620 colon = tested on: SW-620 colon
MDA-MB-435 = tested on: MDA-MB-435
HT29 colon = tested on: HT29 colon
SN12K1 renal = tested on: SN12K1 renal
NCI-H226 lung = tested on: NCI-H226 lung
SF-295 CNS = tested on: SF-295 CNS
NCI-H460 lung = tested on: NCI-H460 lung
OVCAR-8 ovarian = tested on: OVCAR-8 ovarian
UACC-62 melanoma = tested on: UACC-62 melanoma
UO-31 renal = tested on: UO-31 renal
DMS 273 small cell lung = tested on: DMS 273 small cell lung
OVCAR-5 ovarian = tested on: OVCAR-5 ovarian
A498 renal = tested on: A498 renal
NCI/ADR-RES ovarian = tested on: NCI/ADR-RES ovarian
M19-MEL melanoma = tested on: M19-MEL melanoma
MDA-MB-231 breast = tested on: MDA-MB-231 breast
LOX IMVI melanoma = tested on: LOX IMVI melanoma
KM20L2 colon = tested on: KM20L2 colon
CAKI-1 renal = tested on: CAKI-1 renal
SNB-19 CNS = tested on: SNB-19 CNS
HOP-18 NSCLC = tested on: HOP-18 NSCLC
PC-3 prostate = tested on: PC-3 prostate
TK-10 renal = tested on: TK-10 renal
SNB-75 CNS = tested on: SNB-75 CNS
IGROV1 ovarian = tested on: IGROV1 ovarian
HOP-62 NSCLC = tested on: HOP-62 NSCLC
MDA-N = tested on: MDA-N
HL-60(TB) leukemia = tested on: HL-60(TB) leukemia
SN12C renal = tested on: SN12C renal
SK-MEL-28 melanoma = tested on: SK-MEL-28 melanoma
NCI-H23 lung = tested on: NCI-H23 lung
786-0 renal = tested on: 786-0 renal
RXF 393 renal = tested on: RXF 393 renal
K-562 leukemia = tested on: K-562 leukemia
BT-549 breast = tested on: BT-549 breast
HS 578T breast = tested on: HS 578T breast
T-47D breast = tested on: T-47D breast

## Nc1ncnc2c1nc(Cl)n2C1OC2COP(=O)(O)OC2C1O (configuration not stated)
HCT-15 colon
  TGI: > 300 µM
EKVX NSCLC
  TGI: > 300 µM
UACC-257 melanoma
  TGI: > 300 µM
SK-MEL-5 melanoma
  TGI: > 300 µM
A549 NSCLC
  TGI: > 300 µM
MCF7 breast
  TGI: > 300 µM
HCC-2998 colon
  TGI: > 300 µM
DMS 114 small cell lung
  TGI: > 300 µM
P388 leukemia
  TGI: > 300 µM
CCRF-CEM leukemia
  TGI: > 300 µM
KM12 colon
  TGI: > 300 µM
HOP-92 NSCLC
  TGI: 229 µM and > 92.9 µM
MALME-3M melanoma
  TGI: > 300 µM
COLO 205 colon
  TGI: > 300 µM
SF-268 CNS
  TGI: > 300 µM
SR leukemia
  TGI: > 300 µM
SK-MEL-2 melanoma
  TGI: > 300 µM
OVCAR-4 ovarian
  TGI: 204 µM and > 100 µM
SNB-78 CNS
  TGI: > 300 µM
U251 CNS
  TGI: > 300 µM
M14 melanoma
  TGI: > 300 µM
HCT-116 colon
  TGI: > 300 µM
RPMI-8226 leukemia
  TGI: > 300 µM
SF-539 CNS
  TGI: > 300 µM
DU-145 prostate
  TGI: > 300 µM
DLD-1 colon
  TGI: > 194 µM
NCI-H522 lung
  TGI: > 300 µM
SK-OV-3 ovarian
  TGI: > 300 µM
OVCAR-3 ovarian
  TGI: > 300 µM
ACHN renal
  TGI: > 300 µM
SW-620 colon
  TGI: > 300 µM
MDA-MB-435
  TGI: > 255 µM
HT29 colon
  TGI: > 300 µM
SN12K1 renal
  TGI: > 300 µM
NCI-H226 lung
  TGI: > 155 µM
SF-295 CNS
  TGI: > 300 µM
NCI-H460 lung
  TGI: > 300 µM
OVCAR-8 ovarian
  TGI: > 300 µM
UACC-62 melanoma
  TGI: > 300 µM
UO-31 renal
  TGI: > 300 µM
DMS 273 small cell lung
  TGI: > 222 µM
OVCAR-5 ovarian
  TGI: > 283 µM
A498 renal
  TGI: > 300 µM
NCI/ADR-RES ovarian
  TGI: > 300 µM
M19-MEL melanoma
  TGI: > 300 µM
MDA-MB-231 breast
  TGI: > 300 µM
LOX IMVI melanoma
  TGI: > 300 µM
KM20L2 colon
  TGI: > 300 µM
CAKI-1 renal
  TGI: 153 µM and > 100 µM
SNB-19 CNS
  TGI: > 300 µM
HOP-18 NSCLC
  TGI: > 300 µM
PC-3 prostate
  TGI: > 162 µM
TK-10 renal
  TGI: > 222 µM
SNB-75 CNS
  TGI: > 213 µM
IGROV1 ovarian
  TGI: > 300 µM
HOP-62 NSCLC
  TGI: 163 µM and > 100 µM
MDA-N
  TGI: > 300 µM
HL-60(TB) leukemia
  TGI: > 209 µM
SN12C renal
  TGI: > 300 µM
SK-MEL-28 melanoma
  TGI: > 300 µM
NCI-H23 lung
  TGI: > 300 µM
786-0 renal
  TGI: > 300 µM
RXF 393 renal
  TGI: > 300 µM
K-562 leukemia
  TGI: > 300 µM
BT-549 breast
  TGI: > 300 µM
HS 578T breast
  TGI: > 280 µM
T-47D breast
  TGI: > 300 µM
